From patent US11911346B2, “Orally administrated therapeutic for treating mild cognitive impairment (MCI) and improving human cognitive function” (BrainCare LLC, priority 2021, dated 2024) come the findings set out here.

The assay deals with concentration and attention of participants with Subjective Cognitive Decline. Kind of assay: Cambridge Brain Sciences (CBS) Feature Match test. Particulars: for Feature Match actual score: Week 4, normal 87-113; for Feature Match percentage change: Week 8, over 8 weeks. It counts as in vivo, human. An excerpt: The Cambridge Brain Sciences (CBS) included a battery of four tests to measure various aspects of cognition and that affected different regions of the brain. Normal scores for each test ranged from 87 to 113.
The fourth test is the Feature Match (aka Feature Selection), which addresses concentration and attention, and correlates well with aging. It can detect early Alzheimer's disease, and non-Alzheimer's dementia.
The data are presented as mean±standard deviation (S.D.) at baseline, week 4, and week 8. Results from the Cognitive Failures Questionnaire and Cambridge Brain Sciences are compared using the Student's t-test in each intervention group between baseline and week 4 and between baseline and week 8. Significance was defined as p≤0.05. At each time point, the percentage change was compared with the values at baseline. This calculation was only obtained from the means between each time point, and the statistical analysis was not made on these percentage changes.
For Cambridge Brain Sciences tests, some responses were flagged as being a highly unusual response (found in less than 1% of Cambridge Brain Sciences normative database). […] These scores were considered to be invalid and excluded from the final analysis. For each participant, the combined mean scores of all four CBS tests were summed for at baseline and at week 8. The participants were then grouped according to these mean baseline score of all four tests as: below average (less than or equal to 100) and average and above (greater than 100).

The mark [1] stands for this setting: one capsule daily (90 mg BCP), N=24.
The mark [2] stands for this setting: two capsules daily (180 mg BCP), N=25.
Setting [3] is: two capsules daily (180 mg BCP).

As for `C=C1CC/C=C(\C)CC[C@@H]2[C@@H]1CC2(C)C` [BCP, beta-caryophyllene], under setting [1], the “Feature Match: % of participants with no change between baseline and week 8” value was “(13%)”; the “Feature Match: number of participants improved between baseline and week 8” value amounted to 13; the “Feature Match: number of participants with no change between baseline and week 8” value is 3; the “Feature Match: number of participants worsened between baseline and week 8” value stood at 8. In addition, under “one capsule daily (90 mg BCP)”, the “Feature Match actual score” value stood at 98.3 ± 6.9 and the “Feature Match percentage change” value was “+2.0%”. Besides, under setting [2], the “Feature Match: % of participants with no change between baseline and week 8” value is “(16%)”; the “Feature Match: number of participants improved between baseline and week 8” value was 10; the “Feature Match: number of participants with no change between baseline and week 8” value is 4; the “Feature Match: number of participants worsened between baseline and week 8” value is 11. Moreover, under setting [3], the “Feature Match actual score” value was 98.4 ± 7.6 and the “Feature Match percentage change” value is “No change”.
